Experimental data reported in patent US6809233B2, “DNA sequences for an amino acid transporter plasmids, bacteria, yeasts and plants containing a transporter and their use” (Hoechst Schering AgrEvo GmbH, priority 1992, dated 2004).

Biological target: T1, amino acid transporter (PPP1-20, SEQ ID No. 1) in 22574d::PPP1-20 yeast strain (Arabidopsis thaliana, UniProt Q42400)
T1 construct: expressed in transfected cells; host or cells: Saccharomyces cerevisiae strain 22574d transformed with pFL61-ppp1-20
T1 sequence (Q42400 1-485): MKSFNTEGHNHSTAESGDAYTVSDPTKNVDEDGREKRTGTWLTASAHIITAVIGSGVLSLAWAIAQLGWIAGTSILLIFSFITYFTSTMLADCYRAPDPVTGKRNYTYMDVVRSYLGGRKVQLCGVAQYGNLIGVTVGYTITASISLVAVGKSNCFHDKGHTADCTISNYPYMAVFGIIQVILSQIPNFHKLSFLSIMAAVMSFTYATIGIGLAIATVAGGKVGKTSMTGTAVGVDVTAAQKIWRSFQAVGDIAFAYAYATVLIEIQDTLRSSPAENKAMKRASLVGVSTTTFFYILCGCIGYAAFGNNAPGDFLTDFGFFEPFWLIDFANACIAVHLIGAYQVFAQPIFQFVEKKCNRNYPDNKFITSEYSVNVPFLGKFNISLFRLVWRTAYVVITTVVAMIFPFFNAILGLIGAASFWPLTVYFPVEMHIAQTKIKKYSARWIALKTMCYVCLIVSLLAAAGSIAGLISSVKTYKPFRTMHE
Experiment: Competition of 14C-L-proline uptake by excess of amino acids and analogues in 22574d::PPP1-20 yeast strain
Format: cell-based
Experimental: After centrifuging the culture, the cells are washed and taken up in 100 mm tris/HCl pH 4.5, 2 mM MgCl2 and 0.6M sorbitol. Around 100 μL of the suspension was added to a solution of 0.5 mM L-proline plus 1 μCi ^14C labeled L-proline in 100 μL of the same buffer. The uptake of the labeled amino acid was measured by the process described by Cirillo (1989, Meth Enzymol 174: 617-622). The uptake of the labeled amino acid was compared, on the one hand, in co-incubation with protein modifying substance diethyl pyrocarbonate which is an inhibitor of the amino acid transport in membrane vesicles from Beta vulgaris, and, on the other hand, in co-incubation with other protein modifying substances. A competition experiment in which the specificity of the transporter could be read off with various amino acids and analogues is shown in Table II for PPP1-20 and in FIG. 4 for AAP2. An analogous experiment in which a competition for histidine uptake in the line JT16::AAP2 was tested is described in Example 5.

`O=C(O)[C@H]1NCC(O)C1O` (some centres unmarked) [3,4-di-OH proline] was tested, and the “% remaining transport activity” value (1 x excess of competitor) was 86% and the “% remaining transport activity” value (10 x excess of competitor) was 49%.
